Experimental data reported in ChEMBL document CHEMBL1201862, “PubChem BioAssay data set” (2004).
Calls of active or inactive are those of the source.

Experiments:
[1] = biological target: FAD-linked sulfhydryl oxidase ALR (Homo sapiens, UniProt P55789); assay: inhibitors of human ALR sulfhydryl oxidase, dose response, biochemical, H2O2 detection, luminescence, cherry-pick (AID 493248)
[2] = biological target: T1, Zinc finger protein mex-5 (Caenorhabditis elegans, UniProt Q9XUB2); assay: MEX-5/TCR-2 RNA interaction inhibitors, dose response, biochemical, C. elegans, fluorescence polarization (AID 1960)
T1 sequence (Q9XUB2 whole entry): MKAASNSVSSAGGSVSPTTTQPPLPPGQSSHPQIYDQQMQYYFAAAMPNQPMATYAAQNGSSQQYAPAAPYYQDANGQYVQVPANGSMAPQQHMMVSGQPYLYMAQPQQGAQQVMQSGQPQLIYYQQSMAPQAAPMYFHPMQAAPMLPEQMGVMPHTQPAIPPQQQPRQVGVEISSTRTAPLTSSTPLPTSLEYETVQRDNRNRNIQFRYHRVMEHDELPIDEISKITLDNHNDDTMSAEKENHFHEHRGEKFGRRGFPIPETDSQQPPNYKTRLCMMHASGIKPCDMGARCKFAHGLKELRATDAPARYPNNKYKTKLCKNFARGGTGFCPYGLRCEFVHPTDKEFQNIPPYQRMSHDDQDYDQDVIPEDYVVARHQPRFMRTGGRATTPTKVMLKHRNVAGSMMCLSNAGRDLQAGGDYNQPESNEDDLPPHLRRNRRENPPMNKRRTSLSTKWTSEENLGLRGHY

[3] = biological target: T2, RNA-binding protein pos-1 (Caenorhabditis elegans, UniProt G5EF15); assay: inhibitors of POS-1/mex-3 RNA binding, dose response, biochemical, fluorescence polarization (AID 1964);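 also: purified POS-1 fused to maltose binding protein made in E. coli; potency of compounds blocking POS-1 binding to fluorescent RNA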
T2 sequence (G5EF15 whole entry): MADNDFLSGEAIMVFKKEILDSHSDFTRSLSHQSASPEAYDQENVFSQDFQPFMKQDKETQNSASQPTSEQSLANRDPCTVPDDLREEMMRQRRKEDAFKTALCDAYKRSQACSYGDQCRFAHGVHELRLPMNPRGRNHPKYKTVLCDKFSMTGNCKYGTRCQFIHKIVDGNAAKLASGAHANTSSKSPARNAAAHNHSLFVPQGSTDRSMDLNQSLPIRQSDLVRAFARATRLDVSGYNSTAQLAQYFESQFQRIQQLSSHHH

[4] = biological target: T3, Replicative DNA helicase DnaB (Mycobacterium tuberculosis, UniProt P9WMR3); assay: DnaB intein splicing inhibitors, dose response, biochemical, cell-free fluorescence (AID 449749); assay type: functional
T3 sequence (P9WMR3 whole entry): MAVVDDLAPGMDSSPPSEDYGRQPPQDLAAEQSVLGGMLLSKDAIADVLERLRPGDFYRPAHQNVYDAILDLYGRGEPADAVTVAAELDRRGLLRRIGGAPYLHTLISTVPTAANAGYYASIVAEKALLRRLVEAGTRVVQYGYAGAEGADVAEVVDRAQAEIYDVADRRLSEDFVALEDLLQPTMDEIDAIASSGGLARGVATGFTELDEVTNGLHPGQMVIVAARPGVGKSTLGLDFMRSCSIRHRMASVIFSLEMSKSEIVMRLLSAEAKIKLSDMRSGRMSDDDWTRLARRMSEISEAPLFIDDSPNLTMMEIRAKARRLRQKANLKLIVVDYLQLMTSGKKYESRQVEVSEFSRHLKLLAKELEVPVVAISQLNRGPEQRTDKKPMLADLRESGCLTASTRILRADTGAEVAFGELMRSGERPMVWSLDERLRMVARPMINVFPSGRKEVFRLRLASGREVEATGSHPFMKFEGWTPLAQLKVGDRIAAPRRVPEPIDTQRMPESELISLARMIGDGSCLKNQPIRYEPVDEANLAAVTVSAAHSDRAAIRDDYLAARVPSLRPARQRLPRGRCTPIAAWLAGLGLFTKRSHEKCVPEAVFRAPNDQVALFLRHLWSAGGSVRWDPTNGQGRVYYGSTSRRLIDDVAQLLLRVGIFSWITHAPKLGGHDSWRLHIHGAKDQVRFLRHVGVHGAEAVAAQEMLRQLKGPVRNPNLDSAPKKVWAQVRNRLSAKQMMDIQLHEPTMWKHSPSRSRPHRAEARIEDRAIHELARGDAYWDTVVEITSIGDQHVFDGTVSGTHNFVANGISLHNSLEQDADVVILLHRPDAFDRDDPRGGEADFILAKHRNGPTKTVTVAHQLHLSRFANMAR

Protein RecA = biological target: T4, Protein RecA (Mycobacterium tuberculosis, UniProt P9WHJ3); assay: Fluorescence Cell-Free Homogeneous Dose Retest to Identify Inhibitors of RecA-Intein Splicing Activity. [Related pubchem assays (depositor defined):AID2097, AID2223, AID489010, AID492950]; assay type: functional
T4 sequence (P9WHJ3 whole entry): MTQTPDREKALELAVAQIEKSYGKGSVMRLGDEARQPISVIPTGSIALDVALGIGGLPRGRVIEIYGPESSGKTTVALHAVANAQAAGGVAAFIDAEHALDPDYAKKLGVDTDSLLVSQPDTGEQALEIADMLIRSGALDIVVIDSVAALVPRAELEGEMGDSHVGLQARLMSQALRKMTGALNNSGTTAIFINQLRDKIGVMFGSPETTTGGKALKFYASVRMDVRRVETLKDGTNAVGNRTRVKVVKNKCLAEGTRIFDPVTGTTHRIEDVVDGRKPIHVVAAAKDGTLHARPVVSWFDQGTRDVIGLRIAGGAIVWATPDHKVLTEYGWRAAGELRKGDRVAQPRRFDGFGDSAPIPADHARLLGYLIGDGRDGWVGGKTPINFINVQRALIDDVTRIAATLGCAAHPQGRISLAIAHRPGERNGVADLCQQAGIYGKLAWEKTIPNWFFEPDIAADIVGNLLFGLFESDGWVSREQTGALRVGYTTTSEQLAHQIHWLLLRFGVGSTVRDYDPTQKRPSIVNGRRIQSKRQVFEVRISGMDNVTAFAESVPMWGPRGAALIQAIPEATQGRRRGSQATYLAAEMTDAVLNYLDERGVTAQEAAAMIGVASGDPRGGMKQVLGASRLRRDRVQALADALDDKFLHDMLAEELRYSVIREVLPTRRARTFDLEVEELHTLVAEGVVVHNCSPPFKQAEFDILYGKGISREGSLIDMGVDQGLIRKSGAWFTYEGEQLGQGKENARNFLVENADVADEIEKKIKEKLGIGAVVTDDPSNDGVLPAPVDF

[5] = biological target: T5, Rac GTPase-activating protein 1 (Homo sapiens, UniProt Q9H0H5); assay: MgcRacGAP GTPase-activating activity inhibitors, confirmation, biochemical, ADP Hunter fluorescence, primary and confirmatory (AID 624330); assay type: functional
T5 sequence (Q9H0H5 whole entry): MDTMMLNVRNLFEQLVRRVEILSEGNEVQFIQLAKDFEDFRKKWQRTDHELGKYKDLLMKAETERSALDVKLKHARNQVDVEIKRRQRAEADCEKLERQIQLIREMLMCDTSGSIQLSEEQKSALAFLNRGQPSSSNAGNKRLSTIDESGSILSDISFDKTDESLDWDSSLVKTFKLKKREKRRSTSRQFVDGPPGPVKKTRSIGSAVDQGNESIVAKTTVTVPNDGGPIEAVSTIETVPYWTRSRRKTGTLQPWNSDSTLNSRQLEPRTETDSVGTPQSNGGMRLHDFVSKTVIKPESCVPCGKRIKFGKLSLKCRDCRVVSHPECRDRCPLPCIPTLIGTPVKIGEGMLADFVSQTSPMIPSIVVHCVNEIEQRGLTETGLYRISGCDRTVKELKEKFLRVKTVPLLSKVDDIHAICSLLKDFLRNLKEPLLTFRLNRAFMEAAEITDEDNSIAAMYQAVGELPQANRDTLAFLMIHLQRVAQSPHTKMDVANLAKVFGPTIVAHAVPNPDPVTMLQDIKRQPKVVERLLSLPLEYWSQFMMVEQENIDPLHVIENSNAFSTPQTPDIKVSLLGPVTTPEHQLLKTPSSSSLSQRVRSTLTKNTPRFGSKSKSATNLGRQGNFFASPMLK

[6] = system: Streptococcus sp. 'group A'; assay: growth inhibition of control SK(-) GAS strain, dose response, counter-screen for streptokinase expression inhibitor project, luminescence, kanamycin, BacTiterGlo, confirmation (AID 1900); assay type: functional, organism-based
Streptococcus = assay: Group A Streptococcus viability loss, dose response, counter-screen for streptokinase expression inhibitor project, luminescence, BacTiterGlo (AID 1915); assay type: functional, organism-based;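 also: potency for reduction of bacterial viability or growth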
Streptokinase A = biological target: T6, Streptokinase A (Streptococcus pyogenes serotype M1, UniProt P10520); assay: S. pyogenes streptokinase expression inhibitors, potency, dose response, plasminogen activation absorbance, OD405 (AID 1914); assay type: functional, Streptococcus pyogenes M1 GAS;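 also: secreted streptokinase activity via plasminogen activation per viability signal from cell pellet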
T6 sequence (P10520 whole entry): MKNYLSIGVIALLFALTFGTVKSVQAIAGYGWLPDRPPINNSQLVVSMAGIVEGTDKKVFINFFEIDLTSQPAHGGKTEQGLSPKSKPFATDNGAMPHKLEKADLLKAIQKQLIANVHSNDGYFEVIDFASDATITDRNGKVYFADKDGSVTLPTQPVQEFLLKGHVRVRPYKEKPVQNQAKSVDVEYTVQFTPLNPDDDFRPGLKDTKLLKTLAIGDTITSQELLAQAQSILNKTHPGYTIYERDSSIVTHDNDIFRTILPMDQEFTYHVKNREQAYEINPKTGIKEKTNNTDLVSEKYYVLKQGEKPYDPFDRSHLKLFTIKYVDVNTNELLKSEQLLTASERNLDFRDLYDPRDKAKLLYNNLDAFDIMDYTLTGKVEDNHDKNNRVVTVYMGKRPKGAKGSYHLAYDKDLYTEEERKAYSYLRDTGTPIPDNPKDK

[7] = inhibitors of clade B AD8 Env fusion, dose response, cell-based, cherry-pick (AID 652062); assay type: functional;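 also: luciferase signal from cell-cell fusion driven by HIV-1 clade B AD8 Env; potency is for inhibitors of fusion seen as a drop in luminescence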
[8] = ZM109 Env clade C HIV-1 fusion inhibitors, dose response, HeLa effector, CEM target cells, luciferase, cherry-pick (AID 652058); assay type: functional, cell-based
[9] = intracellular Trypanosoma cruzi inhibitors in host cells – cell-based, plate reader, cherry-pick samples, set 3, dose response (AID 651818); assay type: functional;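 also: compounds incubated with infected cells for about four days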

Chain of FAD-linked sulfhydryl oxidase ALR (P55789 whole entry): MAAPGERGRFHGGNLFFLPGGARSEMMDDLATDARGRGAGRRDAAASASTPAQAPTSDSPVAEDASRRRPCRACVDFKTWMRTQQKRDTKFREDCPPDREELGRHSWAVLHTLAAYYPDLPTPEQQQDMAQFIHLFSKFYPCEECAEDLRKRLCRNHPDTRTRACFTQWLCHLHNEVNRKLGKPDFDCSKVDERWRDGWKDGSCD

## Nc1scc(-c2ccncc2)c1Cl
[1]
  AC50: 1.73 µM (active)

## Nc1ncc(Br)cc1S(=O)(=O)NCCC(=O)N1CCN(c2ccccc2)CC1
[1]
  AC50: 1.56 µM (active)

## Cc1ccc2nc(O)c(CN(CCO)Cc3nnnn3CCc3ccccc3)cc2c1
[2]
  EC50: > 300 µM (not active)
[3]
  EC50: > 300 µM (not active)

## Cc1ccc(N2C(=O)C(Cl)=C(NCCO)C2=O)c(C)c1
[4]
  AC50: 155 µM (active)
Protein RecA
  EC50: 10.8 µM (active)

## O=C(N[C@H]1CP(=O)(Oc2ccccc2)O[C@H](COCc2ccccc2)[C@H]1O)C(Cl)(Cl)Cl (stereo not given in full)
[2]
  EC50: > 300 µM (not active)
[3]
  EC50: > 300 µM (not active)

## CN(C)c1ccc(C(c2nnnn2C(C)(C)C)N2CCN(C(=O)c3ccco3)CC2)cc1 (stereo not given)
[1]
  AC50: 3.83 µM (active)

## COC(=O)CCC(=O)OC1(C)C(=O)C2=CN(CCc3ccccn3)C(c3ccc(OC)cc3)=CC2=C(Br)C1=O (stereo not given)
[2]
  EC50: 8.83 µM (active)
[3]
  EC50: 68.5 µM (active)

## CC(C)(C)OC(=O)NCCCC1=CC2=CC(=O)C(C)(OC(=O)c3ccco3)C(=O)C2=CO1 (stereo not given)
[2]
  EC50: 46.8 µM (active)
[3]
  EC50: 46.9 µM (active)

## Nc1ccc2[nH]c(C3CCCCC3)nc2c1
[5]
  IC50: 70.2 µM (active)
[1]
  AC50: 1.13 µM (active)

## COc1ccc(N2CCN(C(=O)Cc3ccc(OC)c(OC)c3)CC2)cc1
[1]
  AC50: 7.7 µM (active)

## Cc1ccc(/C=C2/Sc3ccc(C(=O)N4CCC5(CC4)OCCO5)cc3NC2=O)cc1
[2]
  EC50: 8.06 µM (inconclusive)
[6]
  EC50: 7.6 µM (active)
Streptococcus
  EC50: 9.49 µM (active)
[3]
  EC50: 4.37 µM (active)
Streptokinase A
  EC50: > 150 µM (not active)

## O=C(CNCC1CCCCC1)Nc1ccc(N2CCCCC2)cc1
[1]
  AC50: 13.4 µM (active)

## COCc1cc(O)n2ncc(-c3ccsc3)c2n1
[1]
  AC50: 3.5 µM (active)

## CC1CC(C)CN(C(=O)c2ccc3c(c2)N(Cc2ccccc2)CCS3)C1 (stereo not given)
[4]
  AC50: 5.01 µM (active)
Protein RecA
  EC50: 23.6 µM (active)

## O=C(CCl)NCc1c(Cl)cccc1-n1cccc1
[4]
  AC50: > 380 µM (inactive)
Protein RecA
  EC50: 15.3 µM (active)

## COc1ccccc1C(=O)Nc1ccc2c(c1)nc1n2CCSC1
[1]
  AC50: 0.076 µM (active)

## Cc1ccc(N2C(=O)NC(=O)/C(=C\c3cc(C)n(-c4cc(C(=O)O)cc(C(=O)O)c4)c3C)C2=O)cc1
[2]
  EC50: > 300 µM (not active)
[3]
  EC50: > 300 µM (not active)

## O=C(c1ccccc1)N1CCC(c2nc(-c3ccc(S(=O)(=O)NCC4CCCO4)cc3)no2)CC1 (stereo not given)
[7]
  AC50: 11.3 µM (active)
[8]
  AC50: 24.4 µM (active)

## c1ccc(CN2C3=NCCN3c3ccccc32)cc1
[1]
  AC50: 40.9 µM (active)

## C[C@H]1CN([C@@H](C)CO)C(=O)Cc2cc(NS(=O)(=O)c3ccc(F)cc3)ccc2O[C@@H]1CN(C)Cc1ccc(-c2ccccc2)cc1
[9]
  AC50: 3.21 µM (active)

## C[C@H](CO)N1C[C@H](C)[C@H](CN(C)CC2CC2)Oc2c(NC(=O)Nc3ccc(C(F)(F)F)cc3)cccc2C1=O
[9]
  AC50: 2.66 µM (active)

## C[C@@H]1CN([C@@H](C)CO)C(=O)c2cccc(NC(=O)C3CCCCC3)c2O[C@H]1CN(C)CC1CC1
[9]
  AC50: 8.92 µM (active)

## COc1ccc(NC(=O)Nc2ccc3c(c2)CC(=O)N([C@@H](C)CO)C[C@H](C)[C@H](CN(C)Cc2ccc(-c4ccccc4)cc2)O3)cc1
[9]
  AC50: 3.37 µM (active)

## C[C@H]1CN([C@@H](C)CO)C(=O)Cc2cc(NC(=O)Cc3cn(C)c4ccccc34)ccc2O[C@H]1CN(C)Cc1ccc(Oc2ccccc2)cc1
[9]
  AC50: 5.58 µM (active)

## CN(C)C(=O)C[C@H]1C[C@@H]2c3cc(NS(=O)(=O)c4ccc(F)cc4)ccc3O[C@@H]2[C@@H](CO)O1
[8]
  AC50: 54.1 µM (active)

## CCCCCC(=O)N/N=C/c1cc(Br)c(O)c(OC)c1
[1]
  AC50: 0.098 µM (active)
